Experimental findings from patent US7741485B2, “Benzenesulphonamide derivatives as herbicides or desiccant/defoliant compounds” (BASF Aktiengesellschaft, priority 2003, dated 2010) are described below.

Series [1] concerns Bengal commelina. Briefly: greenhouse herbicidal test, post-emergence treatment. Type of series: in vivo. To be noted: application rates of 15.63 g/ha. The text has this:
(§1) The seeds of the test plants were sown separately for each species. For the post-emergence treatment, the test plants were first grown to a height of 3 to 15 cm, depending on the plant form, and only then treated with the active compounds, emulsified or suspended in water. The test plants were for this purpose either sown directly and grown in the same containers, or they were first grown separately as seedlings and transplanted into the test containers a few days prior to treatment. The application rate for the pre- and post-emergence treatment was from 62.5 to 3.1 g of a.s./ha. Depending on the species, the plants were kept at 10-25° C. or 20-35° C. The test period extended over 2 to 4 weeks. During this time, the plants were tended, and their response to the individual treatments was evaluated. Evaluation was carried out using a scale from 0 to 100. 100 means no emergence of the plants, or complete destruction of at least the above-ground parts, and 0 means no damage, or normal course of growth. The plants used in the greenhouse experiments were composed of the following species: [table]

The test system of series [2] is common lambsquarters. Described as above. Type of series: in vivo.
Excerpt: as §1

For series [3], the system named is velvet leaf. The series is described as above. It is filed as in vivo. To be noted: application rates of 15.63 g/ha.
Excerpt: as §1

Series [4] concerns common morning glory. The series is described as above. Type of series: in vivo.
Excerpt: as §1

For series [5], the system named is pigweed. The description is as above. It is filed as in vivo.
Excerpt: as §1

The subject of series [6] is common lambsquarters. As to the kind of experiment: greenhouse herbicidal test, pre-emergence treatment. Type of series: in vivo. To be noted: for pre-emergence activity against common lambsquarters: application rates of 12.5 and 6.2 g/ha; for control of common lambsquarters, pre-emergence method: application rates of 6.2 and 3.1 g/ha. The text has this: (§2) The seeds of the test plants were sown separately for each species. For the pre-emergence treatment, the active compounds, emulsified or suspended in water, were applied directly after sowing by means of finely distributing nozzles. The containers were irrigated gently to promote germination and growth and subsequently covered with transparent plastic hoods until the plants had rooted. This cover caused uniform germination of the test plants, unless this was adversely affected by the active compounds. The application rate for the pre- and post-emergence treatment was from 62.5 to 3.1 g of a.s./ha. Depending on the species, the plants were kept at 10-25° C. or 20-35° C. The test period extended over 2 to 4 weeks. During this time, the plants were tended, and their response to the individual treatments was evaluated. Evaluation was carried out using a scale from 0 to 100. 100 means no emergence of the plants, or complete destruction of at least the above-ground parts, and 0 means no damage, or normal course of growth. The plants used in the greenhouse experiments were composed of the following species: [table]

Series [7] relates to wild buckwheat. The series is described as above. It is filed as in vivo. To be noted: application rates of 12.5 and 6.2 g/ha.
Excerpt: as §2

Series [8] concerns common morning glory. Described as above. To be noted: for pre-emergence activity against common morning glory: application rates of 12.5 and 6.2 g/ha; for control of morning glory, pre-emergence method: application rates of 6.2 and 3.1 g/ha. It is filed as in vivo.
Excerpt: as §2

Series [9] relates to pigweed. The description is as above. It is filed as in vivo. To be noted: for pre-emergence activity against pigweed: application rates of 12.5 and 6.2 g/ha; for control of pigweed, pre-emergence method: application rates of 6.2 and 3.1 g/ha.
Excerpt: as §2

The test system of series [10] is ladysthumb. Briefly: greenhouse herbicidal test, post-emergence treatment. It is filed as in vivo. To be noted: for post-emergence activity against ladysthumb: application rates of 15.6 and 7.8 g/ha; for post-emergence activity against ladiesthumb: application rates of 15.63 g/ha.
Excerpt: as §1

For series [11], the system named is velvet leaf. As to the kind of experiment: greenhouse herbicidal test, pre-emergence treatment. Type of series: in vivo. To be noted: for control of velvet leaf, pre-emergence method: application rates of 6.2 and 3.1 g/ha.
Excerpt: as §2

The test system of series [12] is common nightshade. Described as above. Type of series: in vivo. To be noted: application rates of 62.5 and 31.2 g/ha.
Excerpt: as §2

The subject of series [13] is cleavers harrif. Briefly: greenhouse herbicidal test, post-emergence treatment. Type of series: in vivo. To be noted: application rates of 15.63 g/ha.
Excerpt: as §1

Setting [14] is: application rates of 15.63 g/ha.
The mark [15] stands for this setting: application rates of 15.6 and 7.8 g/ha.
The mark [16] stands for this setting: application rates of 62.5 and 31.2 g/ha.

One may read the melting point as the temperature of the solid-liquid transition.

Take `CNC(=O)NS(=O)(=O)c1cc(-n2c(=O)cc(C(F)(F)F)n(C)c2=O)c(F)cc1Cl` [Compound 2.17]: the “post-emergence activity against Bengal commelina” value in series [1] is given as “very good”. In addition, the “post-emergence activity against common lambsquarters” value in series [2] (setting [14]) was “very good”. For the same compound, the “post-emergence activity against velvet leaf” value in series [3] was “very good”.
With `CC(C)N(C(=O)NS(=O)(=O)c1cc(-n2c(=O)cc(C(F)(F)F)n(C)c2=O)c(F)cc1Cl)C(C)C` [Compound 2.27], the “post-emergence activity against common morning glory” value in series [4] (setting [14]) was “very good”. The “post-emergence activity against pigweed” value in series [5] (setting [14]) is recorded as “very good”.
In the case of `C#CC(C)N(C)C(=O)NS(=O)(=O)c1cc(-n2c(=O)cc(C(F)(F)F)n(C)c2=O)c(F)cc1Cl` (stereo not drawn) [Compound 2.28], the “post-emergence activity against common lambsquarters” value in series [2] (setting [14]) is “very good”. Further, the “post-emergence activity against common morning glory” value in [4] (setting [14]) was “very good”. In addition, the “post-emergence activity against pigweed” value in [5] (setting [14]) is given as “very good”.
With `Cn1c(C(F)(F)F)cc(=O)n(-c2cc(S(=O)(=O)NC(=O)Nc3ccccc3)c(Cl)cc2F)c1=O` [Compound 2.29], in series [2] (setting [15]), the “post-emergence activity against common lambsquarters” value is “very good”. The “post-emergence activity against common morning glory” value in [4] (setting [15]) is “very good”. Further, in [5] (setting [15]), the “post-emergence activity against pigweed” value is “very good”.
As for `COC(=O)NS(=O)(=O)c1cc(-n2c(=O)cc(C(F)(F)F)n(C)c2=O)ccc1Cl` [Compound 3.1], in series [6], the “pre-emergence activity against common lambsquarters” value is reported as “very good”. Also, the “pre-emergence activity against wild buckwheat” value in series [7] is on record as “very good”. Also, in [8], the “pre-emergence activity against common morning glory” value is recorded as “very good”. The “pre-emergence activity against pigweed” value in series [9] is reported as “very good”.
For `COC(=O)NS(=O)(=O)c1cc(-n2c(=O)cc(C(F)(F)F)n(C)c2=O)c(F)cc1Cl` [Compound 3.18], in [6], the “pre-emergence activity against common lambsquarters” value is “very good”. In series [7], the “pre-emergence activity against wild buckwheat” value is recorded as “very good”. For the same compound, in series [8], the “pre-emergence activity against common morning glory” value is “very good”. For the same compound, the “pre-emergence activity against pigweed” value in [9] is recorded as “very good”.
Consider `CCOC(=O)NS(=O)(=O)c1cc(-n2c(=O)cc(C(F)(F)F)n(C)c2=O)c(F)cc1Cl` [Compound 3.19], for which, in series [2] (setting [15]), the “post-emergence activity against common lambsquarters” value is “very good”. Besides, in series [4] (setting [15]), the “post-emergence activity against common morning glory” value is “very good”. In addition, the “post-emergence activity against ladysthumb” value in series [10] is given as “very good”. The “post-emergence activity against pigweed” value in [5] (setting [15]) was “very good”.
With `CCCOC(=O)NS(=O)(=O)c1cc(-n2c(=O)cc(C(F)(F)F)n(C)c2=O)c(F)cc1Cl` [Compound 3.20], the “post-emergence activity against common lambsquarters” value in series [2] (setting [15]) is “very good”. The “post-emergence activity against common morning glory” value in series [4] (setting [15]) is listed as “very good”. For the same compound, in [10], the “post-emergence activity against ladysthumb” value is reported as “very good”. Besides, the “post-emergence activity against pigweed” value in series [5] (setting [15]) is reported as “very good”.
`CCCCOC(=O)NS(=O)(=O)c1cc(-n2c(=O)cc(C(F)(F)F)n(C)c2=O)c(F)cc1Cl` [Compound 3.22]: in series [2] (setting [15]), the “post-emergence activity against common lambsquarters” value is reported as “very good”. Moreover, in series [4] (setting [15]), the “post-emergence activity against common morning glory” value was “very good”. In addition, the “post-emergence activity against ladysthumb” value in series [10] is reported as “very good”. For the same compound, the “post-emergence activity against pigweed” value in series [5] (setting [15]) is listed as “very good”.
For the compound `CC(C)COC(=O)NS(=O)(=O)c1cc(-n2c(=O)cc(C(F)(F)F)n(C)c2=O)c(F)cc1Cl` [Compound 3.24], the “control of common lambsquarters, pre-emergence method” value in [6] is listed as “very good”. Besides, in series [8], the “control of morning glory, pre-emergence method” value is given as “very good”. Besides, the “control of velvet leaf, pre-emergence method” value in series [11] is reported as “very good”. Further, the “control of pigweed, pre-emergence method” value in [9] was “very good”.
Take `CCCCCOC(=O)NS(=O)(=O)c1cc(-n2c(=O)cc(C(F)(F)F)n(C)c2=O)c(F)cc1Cl` [Compound 3.26]: the “post-emergence activity against common lambsquarters” value in series [2] (setting [15]) is given as “very good”. For the same compound, in series [4] (setting [15]), the “post-emergence activity against common morning glory” value is listed as “very good”. Also, the “post-emergence activity against pigweed” value in [5] (setting [15]) is on record as “very good”.
Regarding `Cn1c(C(F)(F)F)cc(=O)n(-c2cc(S(=O)(=O)NC(=O)OC3CCCC3)c(Cl)cc2F)c1=O` [Compound 3.27], in [2] (setting [15]), the “post-emergence activity against common lambsquarters” value is on record as “very good”. The “post-emergence activity against common morning glory” value in [4] (setting [15]) is given as “very good”. Also, the “post-emergence activity against ladysthumb” value in series [10] is on record as “very good”. The “post-emergence activity against pigweed” value in series [5] (setting [15]) is listed as “very good”.
`Cn1c(C(F)(F)F)cc(=O)n(-c2cc(S(=O)(=O)NC(=O)OCc3ccccc3)c(Cl)cc2F)c1=O` [Compound 3.32, Benzyl{2-chloro-4-fluoro-5-[3,6-dihydro-3-methyl-2,6-dioxo-4-trifluoromethyl-(2H)-pyrimidin-1-yl]phenyl}sulfonylcarbamate]: in [12], the “effectiveness against common nightshade, pre-emergence method” value is given as “very good”. In series [6] (setting [16]), the “effectiveness against common lambsquarters, pre-emergence method” value was “very good”. In addition, the “effectiveness against velvet leaf, pre-emergence method” value in [11] (setting [16]) is listed as “very good”. For the same compound, in series [9] (setting [16]), the “effectiveness against pigweed, pre-emergence method” value was “very good”.
Consider `COC(=O)COC(=O)NS(=O)(=O)c1cc(-n2c(=O)cc(C(F)(F)F)n(C)c2=O)c(F)cc1Cl` [Compound 3.41], for which, in [10], the “post-emergence activity against ladiesthumb” value is “very good”. Also, the “post-emergence activity against cleavers harrif” value in series [13] is on record as “very good”. The “post-emergence activity against pigweed” value in series [5] (setting [14]) is recorded as “very good”.
Consider `COCC(C)(C)OC(=O)NS(=O)(=O)c1cc(-n2c(=O)cc(C(F)(F)F)n(C)c2=O)c(F)cc1Cl` [Compound 3.42], for which the “post-emergence activity against common morning glory” value in series [4] (setting [14]) is “very good”. Also, in series [3], the “post-emergence activity against velvet leaf” value was “very good”. The “post-emergence activity against ladiesthumb” value in series [10] is “very good”.
`CC(C)C(=O)NS(=O)(=O)c1cc(-n2c(=O)cc(C(F)(F)F)n(C)c2=O)ccc1Cl` [Compound 4.5, N-isobutynyl-[2-chloro-5-(3,6-dihydro-3-methyl-2,6-dioxo-4-trifluoromethyl-1-(2H)-pyrimidinyl)]benzenesulfonamide]: the melting point lay in the range of 114 to 116 °C.
Turning to `CCC(=O)NS(=O)(=O)c1cc(-n2c(=O)cc(C(F)(F)F)n(C)c2=O)c(F)cc1Cl` [Compound 4.14], the “post-emergence activity against ladiesthumb” value in series [10] is “very good”. For the same compound, in series [13], the “post-emergence activity against cleavers harrif” value is recorded as “very good”. For the same compound, the “post-emergence activity against pigweed” value in [5] (setting [14]) was “very good”.
Turning to `CC(C)C(=O)NS(=O)(=O)c1cc(-n2c(=O)cc(C(F)(F)F)n(C)c2=O)c(F)cc1Cl` [Compound 4.16], the “control of common lambsquarters, pre-emergence method” value in series [6] was “very good”. Also, in series [8], the “control of morning glory, pre-emergence method” value is reported as “very good”. Moreover, the “control of velvet leaf, pre-emergence method” value in [11] is reported as “very good”. Also, the “control of pigweed, pre-emergence method” value in series [9] is “very good”.
